# Assay results as given in patent US8952024B2, “Herbicidal pyrimidone derivatives” (E I du Pont de Nemours and Company, priority 2009, dated 2015).
# Key:
# Assay type in all cases: in vivo
# [1] = system: bermudagrass (Cynodon dactylon); assay: Test B pre-/postemergence plant response; settings: for Bermudagrass plant response rating (0 to 100 scale): 62 g ai/ha, postemergence, 0 is no effect, 100 is complete control; for Plant response rating, Bermudagrass: Postemergence
# Summary of the method: (§1)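 Response scores were assigned visually after 13 to 15 days in a greenhouse, comparing treated pots with controls on a 0–100 scale where 100 denotes complete control. Preemergence treatments went onto freshly seeded loam/sand soil; postemergence treatments onto plants 2 to 18 cm tall.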
# [2] = system: blackgrass (Alopecurus myosuroides); assay: Test B pre-/postemergence plant response; settings: for Blackgrass plant response rating (0 to 100 scale): 62 g ai/ha, postemergence, 0 is no effect, 100 is complete control; for Plant response rating, Blackgrass: Postemergence
# Summary of the method: as §1
# [3] = system: cocklebur (Xanthium strumarium); assay: Test B pre-/postemergence plant response; settings: for Cocklebur plant response rating (0 to 100 scale): 62 g ai/ha, postemergence, 0 is no effect, 100 is complete control; for Plant response rating, Cocklebur: Postemergence
# Summary of the method: as §1
# corn (Zea mays) = assay: Test B pre-/postemergence plant response; settings: for Corn plant response rating (0 to 100 scale): 62 g ai/ha, postemergence, 0 is no effect, 100 is complete control; for Plant response rating, Corn: Postemergence
# Summary of the method: as §1
# [4] = system: giant foxtail (Setaria faberii); assay: Test B pre-/postemergence plant response; settings: for Foxtail, Giant plant response rating (0 to 100 scale): 62 g ai/ha, postemergence, 0 is no effect, 100 is complete control; for Plant response rating, Foxtail, Giant: Postemergence
# Summary of the method: as §1
# [5] = system: johnsongrass (Sorghum halepense); assay: Test B pre-/postemergence plant response; settings: for Johnsongrass plant response rating (0 to 100 scale): 62 g ai/ha, postemergence, 0 is no effect, 100 is complete control; for Plant response rating, Johnsongrass: Postemergence
# Summary of the method: as §1
# kochia (Kochia scoparia) = assay: Test B pre-/postemergence plant response; settings: for Kochia plant response rating (0 to 100 scale): 62 g ai/ha, postemergence, 0 is no effect, 100 is complete control; for Plant response rating, Kochia: Postemergence
# Summary of the method: as §1
# [6] = system: morningglory (Ipomoea coccinea); assay: Test B pre-/postemergence plant response; settings: for Morningglory plant response rating (0 to 100 scale): 62 g ai/ha, postemergence, 0 is no effect, 100 is complete control; for Plant response rating, Morningglory: Postemergence
# Summary of the method: as §1
# soybean (Glycine max) = assay: Test B pre-/postemergence plant response; settings: for Soybean plant response rating (0 to 100 scale): 62 g ai/ha, postemergence, 0 is no effect, 100 is complete control; for Plant response rating, Soybean: Postemergence
# Summary of the method: as §1
# wild oat (Avena fatua) = assay: Test B pre-/postemergence plant response; settings: for Oat, Wild plant response rating (0 to 100 scale): 62 g ai/ha, postemergence, 0 is no effect, 100 is complete control; for Plant response rating, Oat, Wild: Postemergence
# Summary of the method: as §1
# [7] = system: canarygrass (Phalaris minor); assay: Test B postemergence plant response; settings: for Canarygrass plant response rating (0 to 100 scale): 62 g ai/ha, postemergence, 0 is no effect, 100 is complete control; for Plant response rating, Canarygrass: Postemergence
# Summary of the method: (§2)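 Visual ratings from 0 (no effect) to 100 (complete control), made against controls 13–15 days after treatment, kept in a greenhouse. Compounds were applied postemergence to potted plants at the 1- to 4-leaf stage (2–18 cm).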
# [8] = system: chickweed (Stellaria media); assay: Test B postemergence plant response; settings: for Chickweed plant response rating (0 to 100 scale): 62 g ai/ha, postemergence, 0 is no effect, 100 is complete control; for Plant response rating, Chickweed: Postemergence
# Summary of the method: as §2
# [9] = system: windgrass (Apera spica-venti); assay: Test B postemergence plant response; settings: for Windgrass plant response rating (0 to 100 scale): 62 g ai/ha, postemergence, 0 is no effect, 100 is complete control; for Plant response rating, Windgrass: Postemergence
# Summary of the method: as §2
# [10] = system: winter barley (Hordeum vulgare); assay: Test B postemergence plant response; settings: for Barley plant response rating (0 to 100 scale): 62 g ai/ha, postemergence, 0 is no effect, 100 is complete control; for Plant response rating, Barley: Postemergence
# Summary of the method: as §2
# [11] = 31 g ai/ha, 0 to 100 scale (0 no effect, 100 complete control)
# [12] = 125 g ai/ha, scale 0 to 100 (0 no effect, 100 complete control)
# [13] = 250 g ai/ha, scale 0 to 100 (0 no effect, 100 complete control), 13 to 15 days
structure (smiles),measurement,setting,value
COCCn1c(-c2cccc(Cl)c2)ncc(C(=O)C2=C(O)CCCC2=O)c1=O [Compound 147],Bermudagrass plant response rating (0 to 100 scale),[1]; 13 to 15 days,90
same,"Plant response rating, Bermudagrass",[1]; [11],75
same,"Plant response rating, Bermudagrass",[1]; [12],95
same,"Plant response rating, Bermudagrass",[1]; [13],98
same,Blackgrass plant response rating (0 to 100 scale),[2]; 13 to 15 days,40
same,"Plant response rating, Blackgrass",[2]; [11],10
same,"Plant response rating, Blackgrass",[2]; [12],45
same,"Plant response rating, Blackgrass",[2]; [13],55
same,Cocklebur plant response rating (0 to 100 scale),[3]; 13 to 15 days,75
same,"Plant response rating, Cocklebur",[3]; [11],50
same,"Plant response rating, Cocklebur",[3]; [12],90
same,"Plant response rating, Cocklebur",[3]; [13],100
same,Corn plant response rating (0 to 100 scale),corn (Zea mays); 13 to 15 days,15
same,"Plant response rating, Corn",corn (Zea mays); [11],0
same,"Plant response rating, Corn",corn (Zea mays); [12],25
same,"Plant response rating, Corn",corn (Zea mays); [13],40
same,"Foxtail, Giant plant response rating (0 to 100 scale)",[4]; 13 to 15 days,80
same,"Plant response rating, Foxtail, Giant",[4]; [11],65
same,"Plant response rating, Foxtail, Giant",[4]; [12],85
same,"Plant response rating, Foxtail, Giant",[4]; [13],90
same,Johnsongrass plant response rating (0 to 100 scale),[5]; 13 to 15 days,40
same,"Plant response rating, Johnsongrass",[5]; [11],15
same,"Plant response rating, Johnsongrass",[5]; [12],60
same,"Plant response rating, Johnsongrass",[5]; [13],60
same,Kochia plant response rating (0 to 100 scale),kochia (Kochia scoparia); 13 to 15 days,75
same,"Plant response rating, Kochia",kochia (Kochia scoparia); [11],40
same,"Plant response rating, Kochia",kochia (Kochia scoparia); [12],80
same,"Plant response rating, Kochia",kochia (Kochia scoparia); [13],100
same,Morningglory plant response rating (0 to 100 scale),[6]; 13 to 15 days,50
same,"Plant response rating, Morningglory",[6]; [11],50
same,"Plant response rating, Morningglory",[6]; [12],65
same,"Plant response rating, Morningglory",[6]; [13],100
same,Soybean plant response rating (0 to 100 scale),soybean (Glycine max); 13 to 15 days,60
same,"Plant response rating, Soybean",soybean (Glycine max); [11],15
same,"Plant response rating, Soybean",soybean (Glycine max); [12],65
same,"Plant response rating, Soybean",soybean (Glycine max); [13],85
same,"Oat, Wild plant response rating (0 to 100 scale)",wild oat (Avena fatua); 13 to 15 days,10
same,"Plant response rating, Oat, Wild",wild oat (Avena fatua); [11],5
same,"Plant response rating, Oat, Wild",wild oat (Avena fatua); [12],20
same,"Plant response rating, Oat, Wild",wild oat (Avena fatua); [13],45
same,Canarygrass plant response rating (0 to 100 scale),[7]; 13 to 15 days,0
same,"Plant response rating, Canarygrass",[7]; [11],0
same,"Plant response rating, Canarygrass",[7]; [12],5
same,"Plant response rating, Canarygrass",[7]; [13],5
same,Chickweed plant response rating (0 to 100 scale),[8]; 13 to 15 days,90
same,"Plant response rating, Chickweed",[8]; [11],70
same,"Plant response rating, Chickweed",[8]; [12],98
same,"Plant response rating, Chickweed",[8]; [13],98
same,Windgrass plant response rating (0 to 100 scale),[9]; 13 to 15 days,50
same,"Plant response rating, Windgrass",[9]; [11],10
same,"Plant response rating, Windgrass",[9]; [12],55
same,"Plant response rating, Windgrass",[9]; [13],70
same,Barley plant response rating (0 to 100 scale),[10]; 13 to 15 days,0
same,"Plant response rating, Barley",[10]; [11],0
same,"Plant response rating, Barley",[10]; [12],0
same,"Plant response rating, Barley",[10]; [13],0
CCCn1c(-c2cc(F)cc(F)c2)ncc(C(=O)C2=C(O)CCCC2=O)c1=O [Compound 152],Bermudagrass plant response rating (0 to 100 scale),[1]; 13 to 15 days,95
same,"Plant response rating, Bermudagrass",[1]; [11],95
same,"Plant response rating, Bermudagrass",[1]; [12],98
same,"Plant response rating, Bermudagrass",[1]; [13],98
same,Blackgrass plant response rating (0 to 100 scale),[2]; 13 to 15 days,35
same,"Plant response rating, Blackgrass",[2]; [11],20
same,"Plant response rating, Blackgrass",[2]; [12],55
same,"Plant response rating, Blackgrass",[2]; [13],70
same,Cocklebur plant response rating (0 to 100 scale),[3]; 13 to 15 days,80
same,"Plant response rating, Cocklebur",[3]; [11],70
same,"Plant response rating, Cocklebur",[3]; [12],98
same,"Plant response rating, Cocklebur",[3]; [13],100
same,Corn plant response rating (0 to 100 scale),corn (Zea mays); 13 to 15 days,45
same,"Plant response rating, Corn",corn (Zea mays); [11],25
same,"Plant response rating, Corn",corn (Zea mays); [12],65
same,"Plant response rating, Corn",corn (Zea mays); [13],80
same,"Foxtail, Giant plant response rating (0 to 100 scale)",[4]; 13 to 15 days,85
same,"Plant response rating, Foxtail, Giant",[4]; [11],80
same,"Plant response rating, Foxtail, Giant",[4]; [12],95
same,"Plant response rating, Foxtail, Giant",[4]; [13],98
same,Johnsongrass plant response rating (0 to 100 scale),[5]; 13 to 15 days,90
same,"Plant response rating, Johnsongrass",[5]; [11],70
same,"Plant response rating, Johnsongrass",[5]; [12],95
same,"Plant response rating, Johnsongrass",[5]; [13],100
same,Kochia plant response rating (0 to 100 scale),kochia (Kochia scoparia); 13 to 15 days,65
same,"Plant response rating, Kochia",kochia (Kochia scoparia); [11],10
same,"Plant response rating, Kochia",kochia (Kochia scoparia); [12],95
same,"Plant response rating, Kochia",kochia (Kochia scoparia); [13],100
same,Morningglory plant response rating (0 to 100 scale),[6]; 13 to 15 days,75
same,"Plant response rating, Morningglory",[6]; [11],45
same,"Plant response rating, Morningglory",[6]; [12],75
same,"Plant response rating, Morningglory",[6]; [13],95
same,Soybean plant response rating (0 to 100 scale),soybean (Glycine max); 13 to 15 days,70
same,"Plant response rating, Soybean",soybean (Glycine max); [11],70
same,"Plant response rating, Soybean",soybean (Glycine max); [12],98
same,"Plant response rating, Soybean",soybean (Glycine max); [13],100
same,"Oat, Wild plant response rating (0 to 100 scale)",wild oat (Avena fatua); 13 to 15 days,45
same,"Plant response rating, Oat, Wild",wild oat (Avena fatua); [11],30
same,"Plant response rating, Oat, Wild",wild oat (Avena fatua); [12],80
same,"Plant response rating, Oat, Wild",wild oat (Avena fatua); [13],85
same,Canarygrass plant response rating (0 to 100 scale),[7]; 13 to 15 days,45
same,"Plant response rating, Canarygrass",[7]; [11],35
same,"Plant response rating, Canarygrass",[7]; [12],80
same,"Plant response rating, Canarygrass",[7]; [13],85
same,Chickweed plant response rating (0 to 100 scale),[8]; 13 to 15 days,65
same,"Plant response rating, Chickweed",[8]; [11],10
same,"Plant response rating, Chickweed",[8]; [12],90
same,"Plant response rating, Chickweed",[8]; [13],95
same,Windgrass plant response rating (0 to 100 scale),[9]; 13 to 15 days,70
same,"Plant response rating, Windgrass",[9]; [11],50
same,"Plant response rating, Windgrass",[9]; [12],85
same,"Plant response rating, Windgrass",[9]; [13],98
same,Barley plant response rating (0 to 100 scale),[10]; 13 to 15 days,45
same,"Plant response rating, Barley",[10]; [11],10
same,"Plant response rating, Barley",[10]; [12],85
same,"Plant response rating, Barley",[10]; [13],90
